Data taken from patent US20050085463A1 (priority 2003, published 2005).
One block for each compound: values may come before it.

Legend:
[1] = target: T1, M2 muscarinic receptor (Homo sapiens, UniProt P08172); assay: R-SAT agonist assay; details: R-SAT; relative to carbachol; No response/nr = no agonist activity up to 10 μM
T1 sequence (P08172 1-466): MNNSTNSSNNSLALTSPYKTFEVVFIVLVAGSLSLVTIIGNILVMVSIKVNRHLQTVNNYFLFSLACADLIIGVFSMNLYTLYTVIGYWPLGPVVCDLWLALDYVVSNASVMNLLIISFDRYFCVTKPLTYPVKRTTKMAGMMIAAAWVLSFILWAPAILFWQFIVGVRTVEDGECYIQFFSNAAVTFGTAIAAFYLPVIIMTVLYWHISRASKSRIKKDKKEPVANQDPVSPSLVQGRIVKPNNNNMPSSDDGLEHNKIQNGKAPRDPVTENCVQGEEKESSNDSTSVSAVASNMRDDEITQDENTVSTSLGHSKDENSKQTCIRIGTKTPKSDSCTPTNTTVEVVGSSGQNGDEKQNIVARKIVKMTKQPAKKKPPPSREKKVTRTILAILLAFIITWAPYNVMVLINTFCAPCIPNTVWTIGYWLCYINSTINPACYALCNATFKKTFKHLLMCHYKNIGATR

[2] = target: T2, M4 muscarinic receptor (Homo sapiens, UniProt P08173); assay: R-SAT agonist assay; type: cell-based; set-up: expressed in transfected cells; host or cells: NIH/3T3; details: relative to carbachol, No response/nr = no agonist activity up to 10 μM
T2 sequence (P08173 1-479): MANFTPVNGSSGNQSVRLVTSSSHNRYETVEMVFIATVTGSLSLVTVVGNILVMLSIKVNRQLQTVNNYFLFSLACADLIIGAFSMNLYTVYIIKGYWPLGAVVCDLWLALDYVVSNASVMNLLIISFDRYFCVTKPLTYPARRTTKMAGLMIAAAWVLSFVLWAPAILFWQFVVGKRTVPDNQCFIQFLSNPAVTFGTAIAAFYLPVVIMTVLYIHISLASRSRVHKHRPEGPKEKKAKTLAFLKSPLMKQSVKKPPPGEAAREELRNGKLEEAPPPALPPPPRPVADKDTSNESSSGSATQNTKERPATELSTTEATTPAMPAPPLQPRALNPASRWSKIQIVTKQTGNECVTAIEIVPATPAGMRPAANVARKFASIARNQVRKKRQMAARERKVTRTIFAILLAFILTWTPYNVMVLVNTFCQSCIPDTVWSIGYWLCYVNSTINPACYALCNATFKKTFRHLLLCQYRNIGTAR

[3] = target: T3, M5 muscarinic receptor (Homo sapiens, UniProt P08912); assay: R-SAT agonist assay; type: cell-based; set-up: expressed in transfected cells; host or cells: NIH/3T3; details: R-SAT; relative to carbachol; No response/nr = no agonist activity up to 10 μM
T3 sequence (P08912 1-532): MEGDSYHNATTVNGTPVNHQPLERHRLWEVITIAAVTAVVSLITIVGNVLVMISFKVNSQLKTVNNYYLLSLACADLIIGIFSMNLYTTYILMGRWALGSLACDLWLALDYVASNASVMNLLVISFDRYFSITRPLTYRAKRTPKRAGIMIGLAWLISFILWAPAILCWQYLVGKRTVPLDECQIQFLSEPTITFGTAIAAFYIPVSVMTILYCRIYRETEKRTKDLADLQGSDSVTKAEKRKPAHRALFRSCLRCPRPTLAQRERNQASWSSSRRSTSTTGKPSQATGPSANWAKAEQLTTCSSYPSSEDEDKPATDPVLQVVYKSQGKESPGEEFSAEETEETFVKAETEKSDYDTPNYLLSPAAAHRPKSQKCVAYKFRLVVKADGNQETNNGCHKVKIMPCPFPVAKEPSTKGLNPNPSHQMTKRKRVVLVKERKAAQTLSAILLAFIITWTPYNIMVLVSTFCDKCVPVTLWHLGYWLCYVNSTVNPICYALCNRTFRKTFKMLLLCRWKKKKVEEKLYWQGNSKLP

[4] = target: M3 muscarinic receptor (Homo sapiens, UniProt P20309); assay: R-SAT agonist assay; details: R-SAT; relative to carbachol; No response/nr = no agonist activity up to 10 μM
[5] = target: T4, M1 muscarinic receptor (Homo sapiens, UniProt P11229); assay: R-SAT agonist assay; type: cell-based; set-up: expressed in transfected cells; host or cells: NIH/3T3
T4 sequence (P11229 1-460): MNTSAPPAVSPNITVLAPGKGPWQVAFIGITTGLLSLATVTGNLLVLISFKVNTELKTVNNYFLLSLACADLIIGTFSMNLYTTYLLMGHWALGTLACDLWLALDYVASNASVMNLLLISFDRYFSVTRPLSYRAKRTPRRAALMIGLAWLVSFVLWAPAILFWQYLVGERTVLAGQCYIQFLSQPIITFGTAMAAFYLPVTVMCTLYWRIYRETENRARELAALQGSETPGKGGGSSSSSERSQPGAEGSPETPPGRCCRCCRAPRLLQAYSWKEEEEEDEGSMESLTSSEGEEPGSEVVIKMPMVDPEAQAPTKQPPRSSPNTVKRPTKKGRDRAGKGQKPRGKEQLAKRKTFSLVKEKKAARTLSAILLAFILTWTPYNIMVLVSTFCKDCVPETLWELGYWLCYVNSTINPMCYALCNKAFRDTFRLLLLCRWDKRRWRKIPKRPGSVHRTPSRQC

[6] = Serum levels during clozapine treatment of schizophrenic patients; type: in vivo, human
Procedure: The analysis was adjusted for baseline level of symptom severity, age, and dose, since dose was not fixed. […] Regarding co-treatment with anticholinergic agents, only two subjects in this sample were treated with benztropine. […] Lastly, ten of the patients in this study were treated with benzodiazepines at the time the levels of clozapine and NDMC were measured.
Patients were classified as treatment resistant or not by standard criteria (Kane et al 1988), and clinical ratings and neuropsychological test scores were obtained by trained raters who were blinded to plasma drug levels.

[7] = system: amphetamine-induced hyperactivity; assay: Reversal of amphetamine-induced hyperactivity; type: in vivo, Non-Swiss Albino (NSA) mice; details: p.o.
[8] = system: apomorphine-induced climbing; assay: Reversal of apomorphine-induced climbing; details: s.c.
[9] = system: MK-801-induced hyperactivity; assay: Reversal of MK-801-induced hyperactivity; type: in vivo, Non-Swiss Albino (NSA) mice
Description: Clinically effective antipsychotic drugs can block the behavioral effects of non-competitive N-methyl-D-aspartate […], such as MK-801. […]. […]

[10] = clozapine-treated schizophrenics
[11] = clozapine-treated treatment resistant schizophrenics

M3 muscarinic receptor, sequence (P20309 whole entry): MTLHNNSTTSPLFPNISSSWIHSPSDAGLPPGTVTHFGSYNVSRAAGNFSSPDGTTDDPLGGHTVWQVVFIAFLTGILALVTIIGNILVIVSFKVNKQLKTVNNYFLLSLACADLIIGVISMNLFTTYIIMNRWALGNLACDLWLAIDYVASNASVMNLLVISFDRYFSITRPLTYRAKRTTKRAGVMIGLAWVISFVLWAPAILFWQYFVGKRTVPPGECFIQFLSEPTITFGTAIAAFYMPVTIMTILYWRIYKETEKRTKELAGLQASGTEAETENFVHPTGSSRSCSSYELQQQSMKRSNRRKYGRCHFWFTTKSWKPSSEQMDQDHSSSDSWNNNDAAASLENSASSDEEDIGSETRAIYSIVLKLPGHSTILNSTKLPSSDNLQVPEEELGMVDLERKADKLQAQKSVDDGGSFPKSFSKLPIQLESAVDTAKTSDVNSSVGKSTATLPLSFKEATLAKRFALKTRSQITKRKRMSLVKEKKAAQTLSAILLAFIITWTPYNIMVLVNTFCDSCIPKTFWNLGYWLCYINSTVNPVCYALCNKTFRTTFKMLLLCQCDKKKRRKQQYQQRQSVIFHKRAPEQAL

SMILES: Cc1cc2c(s1)Nc1ccccc1N=C2N1CCN(C)CC1 [Olanzapine]
M2 Efficacy [1]: No response
M4 Efficacy [2]: No response
M5 Efficacy [3]: No response

M4 Efficacy [2]: 96 ± 3%
M5 Efficacy [3]: 105 ± 3%
SMILES: C[N+](C)(C)CCOC(N)=O [Carbachol]

SMILES: Cc1cc2c(s1)Nc1ccccc1N=C2N1CCNCC1 [N-desmethylolanzapine]
M3 Efficacy [4]: No response
M2 Efficacy [1]: No response
M4 Efficacy [2]: No response
M1 Efficacy ([5]; R-SAT, relative to carbachol, No response/nr = no agonist activity up to 10 μM): No response
M5 Efficacy [3]: No response

EC50 ([5]; R-SAT functional agonist screen of 462-compound library, read-out: EC50 at human M1 receptor): > 1000 nM
SMILES: Cc1ccc(C2(O)CCN(CCCC(=O)c3ccc(F)cc3)CC2)cc1 [Moperone, reference compound]

Serum level, All Subjects at 6 Months (92) [6, 10]: 365 ± 285 ng/mL
Serum level, All Subjects at 6 Weeks (86) [6, 10]: 287 ± 190 ng/mL
Serum level, Non-Responders (25) [6, 11]: 268 ± 207 ng/mL
Serum level, Responders (26) [6, 11]: 453 ± 328 ng/mL
Serum level, All TR Subjects (59) ([6]; clozapine-treated treatment resistant schizophrenics, drawn 12 hours after last clozapine dose): 393 ± 301 ng/mL
M2 Efficacy [1]: 65 ± 8%
M5 Efficacy [3]: No response and nr
SMILES: CN1CCN(C2=Nc3cc(Cl)ccc3Nc3ccccc32)CC1 [Clozapine, 8-chloro-11-(4-methyl-1-piperazinyl)-5H-dibenzo [b,e][1,4] diazepine, reference compound]
minimal effective dose, reduction of amphetamine-induced hyperactivity [7]: 3 mg/kg
minimal effective dose, reduction of apomorphine-induced climbing [8]: 10 mg/kg
minimal effective dose, attenuation of MK-801-induced hyperactivity ([9]; p.o.): 3 mg/kg
minimal effective dose, attenuation of MK-801-induced hyperactivity ([9]; s.c.): 1 mg/kg
